Assay results published in patent US20090318485A1, “NOVEL INHIBITORS OF RHO KINASE” (KALYPSYS, INC., priority 2006, published 2009).
Blank lines part the entries; values can stand above or below the compound they belong to.

Columns and labels:
[1] = molecular target: T1, recombinant N-terminal GST-tagged human Rho kinase 2 (ROCK2, amino acids 1-552) (Homo sapiens, UniProt O75116); assay: In vitro Rho kinase assay (luciferase-based ATP consumption), ROCK2; type: biochemical; details: 3 μM ATP, S6 peptide substrate, 30° C. for 2 hours; read-out: ROCK 2 IC50
T1 construct: human Rho kinase 2 (ROCK2, amino acids 1-552, Invitrogen Inc); purchased Invitrogen Inc. PV3759
T1 sequence (O75116 1-552): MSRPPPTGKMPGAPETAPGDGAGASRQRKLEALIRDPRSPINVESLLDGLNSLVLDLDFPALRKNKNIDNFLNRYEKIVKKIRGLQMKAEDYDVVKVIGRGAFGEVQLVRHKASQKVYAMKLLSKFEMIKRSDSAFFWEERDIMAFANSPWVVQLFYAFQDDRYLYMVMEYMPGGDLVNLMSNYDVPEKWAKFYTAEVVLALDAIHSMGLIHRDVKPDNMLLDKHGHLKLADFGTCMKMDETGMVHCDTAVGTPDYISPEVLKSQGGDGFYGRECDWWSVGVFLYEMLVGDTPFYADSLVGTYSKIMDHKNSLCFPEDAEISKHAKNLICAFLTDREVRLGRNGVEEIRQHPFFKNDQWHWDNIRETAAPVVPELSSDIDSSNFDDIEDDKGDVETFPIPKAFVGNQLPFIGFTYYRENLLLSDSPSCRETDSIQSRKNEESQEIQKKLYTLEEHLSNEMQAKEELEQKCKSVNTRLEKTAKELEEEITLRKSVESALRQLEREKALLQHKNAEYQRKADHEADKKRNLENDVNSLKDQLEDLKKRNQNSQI
Protocol: (§1) In Vitro Rho Kinase Assay
(§2) Rho kinase biochemical assays described below depend on firefly luciferase-based, indirect measurement of total ATP consumption by the kinase following incubation with substrate and ATP. […] The plate is centrifuged for 30 seconds at approximately 200×g. 240 nl of test compound in DMSO is dispensed to each well by passive pin transfer. The lag phase of this in vitro kinase reaction permits addition of compounds soon after the reaction initiates. The reaction is allowed to incubate at 30° C. for 2 hours. The assay plates are sealed and maintained in a humidified environment. […] After an additional 10 minute incubation at room temperature (about 22° C.), luminescence activity is measured on a Molecular Devices Analyst multi-mode plate reader or other suitable plate reader. Kinase inhibition results in less ATP consumption, and therefore increased luminescence signal. Negative control activity is measured with DMSO lacking any test compound. The positive control is 2-methyl-1-(4-methylisoquinolin-5-ylsulfonyl)perhydro-1,4-diazepine hydrochloride (aka H-1152P, HCl salt). Efficacy is measured as a percentage of positive control activity.

[2] = molecular target: T2, recombinant N-terminal GST-tagged human Rho kinase 1 (ROCK1, amino acids 1-535) (Homo sapiens, UniProt Q13464); assay: In vitro Rho kinase assay (luciferase-based ATP consumption), ROCK1; type: biochemical; details: 3 μM ATP, S6 peptide substrate, 30° C. for 2 hours; read-out: ROCK 1 IC50
T2 construct: human Rho kinase 1 (ROCK1, amino acids 1-535, Invitrogen Inc); purchased Invitrogen Inc. PV-3691
T2 sequence (Q13464 1-535): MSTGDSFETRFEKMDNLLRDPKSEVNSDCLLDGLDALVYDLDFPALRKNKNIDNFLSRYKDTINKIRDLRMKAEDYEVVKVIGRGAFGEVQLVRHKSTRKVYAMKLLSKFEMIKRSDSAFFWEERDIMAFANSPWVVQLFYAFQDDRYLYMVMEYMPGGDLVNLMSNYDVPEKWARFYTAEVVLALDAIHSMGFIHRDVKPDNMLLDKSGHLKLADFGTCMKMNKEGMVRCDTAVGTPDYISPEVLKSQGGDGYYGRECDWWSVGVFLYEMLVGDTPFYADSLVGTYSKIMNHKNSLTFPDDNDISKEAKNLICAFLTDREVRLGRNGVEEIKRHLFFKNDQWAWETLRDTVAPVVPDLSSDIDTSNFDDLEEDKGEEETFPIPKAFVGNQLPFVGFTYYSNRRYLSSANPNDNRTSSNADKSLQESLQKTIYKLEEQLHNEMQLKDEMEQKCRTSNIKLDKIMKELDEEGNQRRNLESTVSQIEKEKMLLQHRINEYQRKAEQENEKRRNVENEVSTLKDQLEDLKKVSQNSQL
Protocol: as §1, §2

- IC50 [1]: ≤ 5 µM
- IC50 [2]: ≤ 5 µM
SMILES: Cc1cc(C)c2c(N)c(C(N)=O)sc2n1 [Example 2]

- IC50 [1]: ≤ 5 µM
- IC50 [2]: ≤ 5 µM
SMILES: CC(OC(=O)c1ccc(O)cc1)C(=O)Nc1ccc(Cl)c(Cl)c1 (stereo not drawn) [Example 8]

- IC50 [1]: ≤ 5 µM
- IC50 [2]: ≤ 5 µM
SMILES: C=CCc1cccc2cc(C(N)=O)c(=N)oc12 [Example 1]

- IC50 [1]: ≤ 5 µM
- IC50 [2]: ≤ 5 µM
SMILES: CC1CCC(C(=O)NC(C(=O)Nc2ccncc2)C(C)C)CC1 (stereo not drawn) [Example 13]

- IC50 [1]: ≤ 5 µM
- IC50 [2]: ≤ 5 µM
SMILES: CC(C)c1cc2cc(/C=C/C(=O)O)c(O)cc2o1 [Example 3]

More lines, now with the values behind:

SMILES: CSc1nc(-c2ccncc2)nc(N)c1C#N [Example 5]
- IC50 [1]: ≤ 5 µM
- IC50 [2]: ≤ 5 µM

SMILES: CC(C)(CO)CNc1nc(-c2ccncc2)cnc1N [Example 6]
- IC50 [1]: ≤ 5 µM
- IC50 [2]: ≤ 5 µM

SMILES: CCOC(=O)c1nnn(-c2nonc2N)c1-c1ccccc1Cl [Example 12]
- IC50 [1]: > 5 µM
- IC50 [2]: > 5 µM

SMILES: O=C1NC(=Cc2ccc(O)c(Br)c2)C(=O)N1Cc1ccccc1F [Example 11]
- IC50 [1]: ≤ 5 µM
- IC50 [2]: ≤ 5 µM

SMILES: C=CCN(CC=C)S(=O)(=O)c1ccc2nc(N)sc2c1 [Example 9]
- IC50 [1]: ≤ 5 µM
- IC50 [2]: ≤ 5 µM

SMILES: Clc1ccc(Cn2cc(-c3ccncc3)cn2)c(Cl)c1 [Example 15]
- IC50 [1]: ≤ 5 µM
- IC50 [2]: ≤ 5 µM

SMILES: Cc1cc(=O)oc2cc(OC(C)C(=O)Nc3nccs3)ccc12 (stereo not drawn) [Example 10]
- IC50 [2]: > 5 µM

SMILES: CC(CCc1ccc(O)cc1)Nc1ccc2[nH]ncc2c1 (stereo not drawn) [Example 7]
- IC50 [1]: > 5 µM
- IC50 [2]: ≤ 5 µM

SMILES: CN(C)CCN(Cc1ccccc1)Cc1cc(-c2ccnc3cc(Cl)ccc23)ccc1O [Example 4]
- IC50 [1]: ≤ 5 µM
- IC50 [2]: > 5 µM
